The data set is described as follows: solvent given as SMILES.

SMILES strings stand for the structures.

Take `COc1ccc(-c2nc3c(ccc4ccccc43)oc2=O)cc1`: under “in c1ccccc1”, the absorption maximum was 410 nm.
Take `CC1(C)CC(=O)c2cc(F)cc(F)c2N1`: the absorption maximum runs as follows: (in CC#N) 377 nm; (in CCO) 386 nm.
With `CC(C)(C)c1ccc2ccc3c(C(C)(C)C)ccc4ccc1c2c43`, the absorption maximum is, setting by setting: (in CCCCCC) 346 nm; (in CO) 345 nm; (in ClCCl) 348 nm.
For the compound `c1ccc(-c2c3c(nc4ccccc24)-c2cc4c(cc2CC3)-c2nc3ccccc3c(-c3ccccc3)c2CC4)cc1`, the absorption maximum (in ClC(Cl)Cl) is 376 nm.
Consider `CCB1c2ccccc2Nc2ccccc21`, for which the absorption maximum (in ClCCl) is 381 nm.
Still for that read-out and setting: to `COc1cc2c(cc1OC)C1=C[C@H](c3ccc(C)cc3)C3(C(C#N)=C(C#N)N1CC2)c1ccccc1-c1ccccc13` belongs 317 nm.
Compound `CCCCCn1c2ccc(S(=O)(=O)Cl)cc2c(=O)c2cc(S(=O)(=O)Cl)ccc21` gave an absorption maximum (in CS(C)=O) of 406 nm.
Consider `Cc1cc(O)c(C(=O)/C=C/c2ccccc2[N+](=O)[O-])c(=O)o1`, for which the absorption maximum (in CC#N) is on record as 352 nm and the absorption maximum (in ClCCl) worked out at 365 nm.
`COC(=O)C1=C(C(=O)OC)C2(c3ccccc3-c3c(Br)cc(Br)cc32)C2(/C=C/c3ccccc3)c3cc(OC)c(OC)cc3CCN12` (stereo not drawn) yielded an absorption maximum (in ClCCl) of 328 nm.
`COc1ccc(-c2cc(-c3ccc(C)cc3)c(C#N)c(OC)n2)cc1` had an absorption maximum (in C1CCOC1) of 339 nm; an absorption maximum (in CC#N) of 338 nm; an absorption maximum (in CC(C)=O) of 340 nm; an absorption maximum (in CCCCCC) of 334 nm; an absorption maximum (in CCOC(C)=O) of 335 nm; an absorption maximum (in CN(C)C=O) of 343 nm. The absorption maximum is, setting by setting: (in CO) 338 nm; (in CS(C)=O) 344 nm; (in ClC(Cl)Cl) 341 nm.
Consider `Cc1cc2nc3cc(C)c(N)cc3[n+](-c3ccccc3)c2cc1N`, for which the absorption maximum by setting is: (in CC(C)O) 537.1 nm; (in CCO) 534 nm; (in CO) 529 nm; (in O) 520 nm.
Consider `CC(=O)c1cc(=O)n(C)c2cc(-c3ccc(N(C)C)cc3)sc12`, for which the absorption maximum is given as 440 nm (in CC#N) and 448 nm (in ClCCl).
In turn, `O=C(/C=C(\O)c1ccc(N2c3ccccc3Oc3ccccc32)cc1)c1ccc(N2c3ccccc3Oc3ccccc32)cc1` showed an absorption maximum (in Cc1ccccc1) of 441 nm.
Consider `O=c1c2ccccc2n2c3ccc(-c4ccccc4)cc3c(=O)c3cccc1c32`, for which the absorption maximum is on record as 442 nm (in CC#N); 434 nm (in CCCCCC); 437 nm (in CCCCOCCCC); 439 nm (in CCOC(C)=O); 445 nm (in CN(C)C=O).
On to `N#Cc1c(-n2c3ccc(I)cc3c3cc(I)ccc32)c(C#N)c(-n2c3ccc(I)cc3c3cc(I)ccc32)c(-n2c3ccc(I)cc3c3cc(I)ccc32)c1-n1c2ccc(I)cc2c2cc(I)ccc21`, for which the absorption maximum (in Cc1ccccc1) is listed as 384 nm.
For the compound `Cc1cc2c(ccc3c[n+](C)c(C)cc32)c[n+]1C`, the absorption maximum (in CC#N) came out at 400 nm.
Take `CC[Si](C)(C)c1cc2ccc3cccc4ccc(c1C(=O)NC(C)(C)C)c2c34`: the absorption maximum (in ClC(Cl)Cl) is recorded as 381 nm.
With `N#Cc1c(-n2nnc3ccc(Cl)cc32)n([C@H]2C[C@H](O)[C@@H](CO)O2)c2ncnc(N)c12`, the absorption maximum (in CO) came out at 276 nm.
Consider `CN(C)c1cccc2c1ccc1c(=O)oc(-c3ccc(C(F)(F)F)cc3)cc12`, for which the absorption maximum (in CC(C)=O) was 392 nm; the absorption maximum (in CCCCCCCCO) was found to be 395 nm; the absorption maximum (in CCCCO) stood at 394 nm; the absorption maximum (in CCCO) is recorded as 393 nm; the absorption maximum (in CCO) is reported as 393 nm; the absorption maximum (in CCOC(C)=O) is 393 nm. Further, the absorption maximum reads like this: (in CN(C)C=O) 395 nm; (in CO) 391 nm; (in ClC(Cl)Cl) 395 nm.
`CC1=CC(C)=[N+]2C1=C(c1ccc(O)cc1)c1c(C)cc(/C=C/C=C3/N(C)c4ccccc4C3(C)C)n1[B-]2(F)F` registered an absorption maximum (in O) of 650 nm.
Take `COC(=O)c1ccc(C2=C(/C=C/c3ccc(OC)cc3)O[B-](F)(F)[O+]=C2/C=C/c2ccc(OC)cc2)cc1`: the absorption maximum (in ClCCl) was found to be 507 nm.
On the same count and under the same terms, to `N#CC1N=c2cc3c4c(cccc4c2=NC1C#N)C(c1ccccc1)=C(c1ccccc1)O3` (stereo not drawn) belongs 501 nm.
Take `CC(C)[Si]1(C(C)C)c2cc(C=C(C#N)C#N)ccc2-c2ccc(N(c3ccccc3)c3ccccc3)cc21`: the absorption maximum runs as follows: (in C1CCCCC1) 484 nm; (in CC#N) 461 nm; (in CCO) 467 nm; (in CCOCC) 467 nm; (in CS(C)=O) 466 nm; (in ClCCl) 481 nm. The same compound returned an absorption maximum (in c1ccccc1) of 477 nm.
In the case of `CC1=C(c2ccc(-c3nc(-c4ccccc4)c(-c4ccccc4)[nH]3)cc2)S[C@]2(C)C1=C1C(=C3c4ccccc4C(C)[C@]32C)C(F)(F)C(F)(F)C1(F)F` (stereo partly drawn), the absorption maximum (in C1CCOC1) is recorded as 589 nm.
For `C=CCNc1ccc2ccc3oc4cc(=[N+](C)C)ccc-4nc3c2c1`, the absorption maximum came out at 569 nm (in CC#N), 572 nm (in CCO), 582 nm (in ClCCl) and 552 nm (in O).
Take `CC(C)(C)c1cc2ccc3cc(C(C)(C)C)cc4c3c2c(c1)c(=O)n1c4nc2c3cc(C(C)(C)C)cc4ccc5cc(C(C)(C)C)cc(c5c43)c21`: the absorption maximum runs as follows: (in C1CCOC1) 395 nm; (in CC#N) 394 nm; (in CC(C)=O) 395 nm; (in CCCCCC) 399 nm; (in CCO) 395 nm; (in CCOC(C)=O) 393 nm. Further, the absorption maximum reads like this: (in CO) 382 nm; (in CS(C)=O) 394 nm; (in Cc1ccc(C)cc1) 396 nm; (in ClC(Cl)(Cl)Cl) 401 nm; (in ClC(Cl)Cl) 401 nm; (in c1ccccc1) 395 nm.
Take `COc1ccccc1C1=C2C(C)=CC(C)=[N+]2[B-](F)(F)n2c(C)cc(C)c21`: the absorption maximum is on record as 503 nm (in C1CCOC1); 499 nm (in CC#N); 502 nm (in CC(=O)C(C)(C)C); 501 nm (in CC(C)=O); 504 nm (in CCCCCC); 502 nm (in CCOC(C)=O). Under “in CO”, this compound showed an absorption maximum of 500 nm.
Consider `CC(=O)Nc1cc2ccc3cccc4ccc(c1)c2c34`, for which the absorption maximum is, setting by setting: (in CC#N) 334 nm; (in CCCCOCCCC) 336 nm; (in CO) 334 nm.
`N#CC1=CC(Br)=CC(C#N)=P1(c1ccccc1)c1ccccc1` had an absorption maximum (in ClC(Cl)Cl) of 482 nm.
`CC1=CC(C)=[N+]2C1=C(c1ccc(N3CCOCC3)cc1)c1c(C)cc(C)n1[B-]2(F)F`: the absorption maximum reads like this: (in C1CCOC1) 500 nm; (in CC#N) 496 nm; (in CC(=O)C(C)(C)C) 495 nm; (in CC(C)=O) 490 nm; (in CCCCCC) 498 nm; (in CCOC(C)=O) 498 nm. Also, the absorption maximum (in CO) stood at 494 nm.
As to `CN(C)c1ccccc1`, under “in C1CCCCC1”, the absorption maximum is 293.94 nm.
